Key:
[1] = target: T1, CDK1/cyclinB (Homo sapiens, UniProt P06493); experiment: CDK1/cyclinB kinase assay, IMAP fluorescence polarization; assay type: biochemical; conditions: read-out: CDK1 IC50
T1 construct: purchased Millipore
Procedure: (§1) Kinase assays were performed on recombinant purified enzymes using the non-radioactive IMAP fluorescence polarization assay format.
(§2) Compound stocks were prepared and diluted in DMSO and were added to kinase reactions at a 1/100 dilution for a final concentration of 1% DMSO. The components were added together to final concentrations listed in the tables below and incubated for two hours at room temperature.
(§3) The reactions were stopped by addition of stop solution.
The samples were allowed to incubate for one more hour at room temperature and then the fluorescence polarization was measured.

[2] = target: T2, CDK9/cyclinT1 (Homo sapiens, UniProt P50750); experiment: CDK9/cyclinT1 kinase assay, IMAP fluorescence polarization; assay type: biochemical
T2 construct: purchased Millipore
T2 sequence (P50750 whole entry): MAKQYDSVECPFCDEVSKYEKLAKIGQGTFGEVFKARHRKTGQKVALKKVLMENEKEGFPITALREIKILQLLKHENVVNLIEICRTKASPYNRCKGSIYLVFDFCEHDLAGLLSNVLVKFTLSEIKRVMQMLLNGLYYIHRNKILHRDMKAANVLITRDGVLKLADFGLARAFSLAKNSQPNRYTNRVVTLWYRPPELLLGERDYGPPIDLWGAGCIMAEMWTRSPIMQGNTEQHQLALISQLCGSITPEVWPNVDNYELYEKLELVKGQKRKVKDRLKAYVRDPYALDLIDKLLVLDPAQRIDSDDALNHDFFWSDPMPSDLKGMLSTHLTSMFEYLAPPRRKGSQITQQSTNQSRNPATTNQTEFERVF
T2 sequence (O60563 whole entry partner): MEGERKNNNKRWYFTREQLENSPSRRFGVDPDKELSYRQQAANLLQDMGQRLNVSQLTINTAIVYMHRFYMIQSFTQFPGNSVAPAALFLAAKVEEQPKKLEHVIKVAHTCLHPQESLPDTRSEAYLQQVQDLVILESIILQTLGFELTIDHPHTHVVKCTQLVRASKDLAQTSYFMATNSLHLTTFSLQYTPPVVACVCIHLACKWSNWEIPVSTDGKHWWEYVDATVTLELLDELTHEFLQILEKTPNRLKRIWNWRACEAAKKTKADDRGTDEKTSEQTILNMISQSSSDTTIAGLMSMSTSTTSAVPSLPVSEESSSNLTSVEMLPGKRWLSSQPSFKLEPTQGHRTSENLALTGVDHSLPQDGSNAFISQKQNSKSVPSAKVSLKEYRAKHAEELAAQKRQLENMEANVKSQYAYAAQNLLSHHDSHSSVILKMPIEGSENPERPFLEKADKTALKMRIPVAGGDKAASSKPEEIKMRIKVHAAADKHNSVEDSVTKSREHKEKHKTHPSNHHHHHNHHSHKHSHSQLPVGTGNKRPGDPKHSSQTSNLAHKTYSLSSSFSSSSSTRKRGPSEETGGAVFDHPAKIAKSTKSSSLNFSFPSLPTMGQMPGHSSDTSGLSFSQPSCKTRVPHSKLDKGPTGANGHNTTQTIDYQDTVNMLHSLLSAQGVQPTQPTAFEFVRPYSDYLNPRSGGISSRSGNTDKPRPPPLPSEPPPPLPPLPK
Procedure: as §1, §2, §3
CDK9/CDK1/CDK7: final stop concentration is 1× Developer buffer (85% A/15% B), IMAP beads 1/400
The samples were allowed to incubate for one more hour at room temperature and then the fluorescence polarization was measured. The plate normalized millipolarization (mP) values were plotted against the log of compound concentration for each compound and IC50 values were calculated using the spotfire IC50 calculator and confirmed by visual analysis.

T1 sequence (P06493 whole entry): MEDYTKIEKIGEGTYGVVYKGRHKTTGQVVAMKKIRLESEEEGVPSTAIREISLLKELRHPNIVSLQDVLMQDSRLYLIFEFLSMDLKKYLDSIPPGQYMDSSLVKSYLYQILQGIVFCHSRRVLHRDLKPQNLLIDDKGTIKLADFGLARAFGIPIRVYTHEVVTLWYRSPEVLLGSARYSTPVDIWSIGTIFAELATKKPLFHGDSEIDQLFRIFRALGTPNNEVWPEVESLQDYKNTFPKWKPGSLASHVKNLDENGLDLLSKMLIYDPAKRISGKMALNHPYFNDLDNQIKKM
T1 sequence (P14635 whole entry partner): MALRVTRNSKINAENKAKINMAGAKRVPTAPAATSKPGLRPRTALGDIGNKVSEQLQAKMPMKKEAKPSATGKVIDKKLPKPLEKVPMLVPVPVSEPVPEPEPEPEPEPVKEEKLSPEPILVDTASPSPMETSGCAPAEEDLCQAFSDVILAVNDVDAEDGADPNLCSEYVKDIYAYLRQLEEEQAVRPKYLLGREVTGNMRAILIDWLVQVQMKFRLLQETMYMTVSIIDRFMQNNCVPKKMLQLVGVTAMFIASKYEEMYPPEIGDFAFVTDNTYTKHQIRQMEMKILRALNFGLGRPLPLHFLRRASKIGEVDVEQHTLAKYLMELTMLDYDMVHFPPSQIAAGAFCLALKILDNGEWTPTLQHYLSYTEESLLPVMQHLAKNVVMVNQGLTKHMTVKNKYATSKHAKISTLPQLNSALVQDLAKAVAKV

| IC50 [1] | IC50 [2] | Structure (SMILES) |
| --- | --- | --- |
| < 5 µM | < 5 µM | Cc1c(-c2ccnc(Nc3cccc(Cl)c3)n2)ccnc1NCCCN [Compound 4, N-{4-[2-(3-Chloro-phenylamino)-pyrimidin-4-yl]-3-methyl-pyridin-2-yl}-propane-1,3-diamine] |
| < 5 µM | < 5 µM | CCc1c(-c2ccnc(Nc3cccc(Cl)c3)n2)ccnc1NCCCN [Compound 5, N-{4-[2-(3-Chloro-phenylamino)-pyrimidin-4-yl]-3-ethyl-pyridin-2-yl}-propane-1,3-diamine] |
| < 5 µM | < 5 µM | CCc1c(-c2ccnc(Nc3cccc(Cl)c3)n2)ccnc1NCCCNC(C)=O [Compound 7, N-(3-{4-[2-(3-Chloro-phenylamino)-pyrimidin-4-yl]-3-ethyl-pyridin-2-ylamino}-propyl)-acetamide] |
| 15 to 50 µM | 5 to 15 µM | Cc1c(-c2ccnc(N(C)c3cccc(Cl)c3)n2)ccnc1NCCCN [Compound 8, N-(4-{2-[(3-Chloro-phenyl)-methyl-amino]-pyrimidin-4-yl}-3-methyl-pyridin-2-yl)-propane-1,3-diamine] |
| < 5 µM | < 5 µM | CNCCCN(C)c1nccc(-c2ccnc(Nc3cccc(Cl)c3)n2)c1C [Compound 9, N-{4-[2-(3-Chloro-phenylamino)-pyrimidin-4-yl]-3-methyl-pyridin-2-yl}-N,N′-dimethyl-propane-1,3-diamine] |
| 5 to 15 µM | < 5 µM | CC(=O)N(C)CCCN(C)c1nccc(-c2ccnc(Nc3cccc(Cl)c3)n2)c1C [Compound 10, N-[3-({4-[2-(3-Chloro-phenylamino)-pyrimidin-4-yl]-3-methyl-pyridin-2-yl}-methyl-amino)-propyl]-N-methyl-acetamide] |
| 15 to 50 µM | > 50 µM | CNCCCN(C)c1nccc(-c2ccnc(N(C)c3cccc(Cl)c3)n2)c1C [Compound 11, N-(4-{2-[(3-Chloro-phenyl)-methyl-amino]-pyrimidin-4-yl}-3-methyl-pyridin-2-yl)-N,N′-dimethyl-propane-1,3-diamine] |
| > 50 µM | > 50 µM | CC(=O)NCCCNc1nccc(-c2ccnc(N(C)c3cccc(Cl)c3)n2)c1C [Compound 13, N-[3-(4-{2-[(3-Chloro-phenyl)-methyl-amino]-pyrimidin-4-yl}-3-methyl-pyridin-2-ylamino)-propyl]-acetamide] |
| > 50 µM | < 5 µM | CC(=O)NCCCNc1nccc(-c2ccnc(Nc3cccc(CNC(C)=O)c3)n2)c1C [Compound 15, N-[3-(4-{2-[3-(Acetylamino-methyl)-phenylamino]-pyrimidin-4-yl}-3-methyl-pyridin-2-ylamino)-propyl]-acetamide] |
| < 5 µM | < 5 µM | Cc1c(-c2ccnc(Nc3cccc(Cl)c3)n2)ccnc1NCCCO [Compound 17, 3-{4-[2-(3-Chloro-phenylamino)-pyrimidin-4-yl]-3-methyl-pyridin-2-ylamino}-propan-1-ol] |
| 5 to 15 µM | < 5 µM | CC(=O)OCCCNc1nccc(-c2ccnc(Nc3cccc(Cl)c3)n2)c1C [Compound 19, Acetic acid 3-{4-[2-(3-chloro-phenylamino)-pyrimidin-4-yl]-3-methyl-pyridin-2-ylamino}-propyl ester] |
| 5 to 15 µM | < 5 µM | Cc1c(-c2ccnc(Nc3cccc(Cl)c3)n2)ccnc1NCCC(=O)O [Compound 20, 3-{4-[2-(3-Chloro-phenylamino)-pyrimidin-4-yl]-3-methyl-pyridin-2-ylamino}-propionic acid] |
| 5 to 15 µM | < 5 µM | Cc1c(-c2ccnc(Nc3cccc(Cl)c3)n2)ccnc1NCCCNc1ccc(CN)cc1 [Compound 27, N-(4-Aminomethyl-phenyl)-N′-{4-[2-(3-chloro-phenylamino)-pyrimidin-4-yl]-3-methyl-pyridin-2-yl}-propane-1,3-diamine] |
| 15 to 50 µM | < 5 µM | CC(=O)NCc1ccc(NCCCNc2nccc(-c3ccnc(Nc4cccc(Cl)c4)n3)c2C)cc1 [Compound 28, N-[4-(3-{4-[2-(3-Chloro-phenylamino)-pyrimidin-4-yl]-3-methyl-pyridin-2-ylamino}-propylamino)-benzyl]-acetamide] |
| < 5 µM | < 5 µM | Cc1cnc(Nc2cccc(Cl)c2)nc1-c1ccnc(NCCCN)c1 [Compound 31, N-{4-[2-(3-Chloro-phenylamino)-5-methyl-pyrimidin-4-yl]-pyridin-2-yl}-propane-1,3-diamine] |
| > 50 µM | 15 to 50 µM | Cc1cc(-c2ccnc(NCCCN)c2)nc(Nc2cccc(Cl)c2)n1 [Compound 33, N-{4-[2-(3-Chloro-phenylamino)-6-methyl-pyrimidin-4-yl]-pyridin-2-yl}-propane-1,3-diamine] |
| < 5 µM | < 5 µM | CC(=O)NCCCNc1cc(-c2cc(C)nc(Nc3cccc(Cl)c3)n2)ccn1 [Compound 34, N-(3-{4-[2-(3-Chloro-phenylamino)-6-methyl-pyrimidin-4-yl]-pyridin-2-ylamino}-propyl)-acetamide] |
| < 5 µM | < 5 µM | NCCCNc1cc2c(cn1)CCc1cnc(Nc3cccc(Cl)c3)nc1-2 [Compound 35, N-(3-Amino-propyl)-N-(3-chloro-phenyl)-9,10-dihydro-2,4,7-triaza-phenanthrene-3,6-diamine] |
| < 5 µM | < 5 µM | CC(=O)NCCCNc1cc2c(cn1)CCc1cnc(Nc3cccc(Cl)c3)nc1-2 [Compound 36, N-{3-[3-(3-Chloro-phenylamino)-9,10-dihydro-2,4,7-triaza-phenanthren-6-ylamino]-propyl}-acetamide] |
| 5 to 15 µM | < 5 µM | CC(=O)NCCCNc1nccc2c1CCc1cnc(Nc3cccc(Cl)c3)nc1-2 [Compound 38, N-{3-[3-(3-Chloro-phenylamino)-9,10-dihydro-2,4,7-triaza-phenanthren-8-ylamino]-propyl}-acetamide] |
| < 5 µM | < 5 µM | Cc1cnc(NCCCN)cc1-c1ccnc(Nc2cccc(Cl)c2)n1 [Compound 39, N-{4-[2-(3-Chloro-phenylamino)-pyrimidin-4-yl]-5-methyl-pyridin-2-yl}-propane-1,3-diamine] |
| 15 to 50 µM | < 5 µM | CC(=O)NCCCNc1cc(-c2ccnc(Nc3cccc(Cl)c3)n2)c(C)cn1 [Compound 40, N-(3-{4-[2-(3-Chloro-phenylamino)-pyrimidin-4-yl]-5-methyl-pyridin-2-ylamino}-propyl)-acetamide] |
| < 5 µM | < 5 µM | Cc1cc(-c2ccnc(Nc3cccc(Cl)c3)n2)cc(NCCCN)n1 [Compound 41, N-{4-[2-(3-Chloro-phenylamino)-pyrimidin-4-yl]-6-methyl-pyridin-2-yl}-propane-1,3-diamine] |
| < 5 µM | < 5 µM | Clc1cccc(Nc2nccc(-c3cccnc3Cl)n2)c1 [Compound 43, (3-Chloro-phenyl)-[4-(2-chloro-pyridin-3-yl)-pyrimidin-2-yl]-amine] |
| < 5 µM | < 5 µM | CS(=O)(=O)c1cccc(Nc2nccc(-c3cccnc3Nc3cccc(S(C)(=O)=O)c3)n2)c1 [Compound 51, (3-Methanesulfonyl-phenyl)-{4-[2-(3-methanesulfonyl-phenylamino)-pyridin-3-yl]-pyrimidin-2-yl}-amine] |
| > 50 µM | 15 to 50 µM | COc1ncccc1-c1ccnc(N)n1 [Compound 86, 4-(2-Methoxy-pyridin-3-yl)-pyrimidin-2-ylamine] |

From US20100048597A1 (Novartis AG, priority 2006, published 2010)
